What was measured:
HCT116 MTAP+/+ = assay: Inhibition of cellular proliferation (Cell Titer Glo), HCT116 MTAP+/+; type: cell-based; details: Homo sapiens, HCT-116, 96 h, 4 days, read-out: 4 Day Relative Growth Inhibition (MTAP +/+)
How it was run: (§1)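 Isogenic HCT116 MTAP+/+ and MTAP−/− cells treated 24 h after plating with 10-point 3-fold dilutions, then grown 4 days at 37 °C/5% CO2. ATP content read by Cell Titer Glo luminescence, blank-subtracted and normalized to 0.2% DMSO control, plotted as percent proliferation change versus log molar concentration.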

HCT116 MTAP−/− = assay: Inhibition of cellular proliferation (Cell Titer Glo), HCT116 MTAP-/-; type: cell-based; details: Homo sapiens, HCT-116, 96 h, 4 days, read-out: 4 Day Relative Growth Inhibition (MTAP −/−)
How it was run: as §1

MAT2A homodimer = molecular target: T1, MAT2A homodimer (Homo sapiens, UniProt P31153); assay: MAT2A biochemical assay (phosphate release, PiColorLock Gold); details: recombinant MAT2A homodimer, 60 min pre-incubation, 25° C.; read-out: Enzyme Inhibition
T1 construct: inferred from Ni sepharose purification and imidazole elution; made in house; host or cells: SF9 insect cells, recombinant baculovirus (Bac to Bac, pFASTBAC1)
T1 sequence (P31153 whole entry): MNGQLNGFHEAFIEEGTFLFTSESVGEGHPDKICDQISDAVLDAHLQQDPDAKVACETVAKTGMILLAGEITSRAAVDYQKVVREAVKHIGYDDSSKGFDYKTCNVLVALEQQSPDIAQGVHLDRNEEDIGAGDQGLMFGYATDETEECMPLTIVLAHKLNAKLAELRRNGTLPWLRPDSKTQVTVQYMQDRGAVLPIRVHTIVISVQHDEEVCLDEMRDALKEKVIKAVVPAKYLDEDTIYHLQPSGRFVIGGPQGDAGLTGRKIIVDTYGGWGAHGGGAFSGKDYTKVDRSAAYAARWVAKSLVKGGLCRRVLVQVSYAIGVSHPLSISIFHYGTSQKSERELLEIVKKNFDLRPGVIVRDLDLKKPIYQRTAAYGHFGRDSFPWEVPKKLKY
How it was run: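 Baculovirus/Sf9-expressed, Ni-purified MAT2A homodimer (4 µg/mL in pH 8.0 Tris/KCl/MgCl2 buffer) preincubated 60 min at 25 °C with compound (2% DMSO final). Substrate mix of 500 µM ATP and 400 µM L-methionine added; 60 min at 25 °C; released phosphate quantified colorimetrically against a phosphate standard curve.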

[1] = test system: MAT2A activity (SAM) in HCT116 cells with deleted MTAP gene; assay: Cellular assay of target engagement (SAM) by LC-MS/MS; type: cell-based; details: Homo sapiens, HCT-116; HCT116 MTAP −/−, 72 hrs; read-out: Cell 72 h SAM Inhibition (MTAP −/−)
How it was run: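 HCT116 MTAP-deleted cells treated with 10-point 3-fold DMSO serial dilutions of compound for 72 hrs at 37° C. Cells lysed in cold 80% methanol/acetic acid extraction buffer with d3-SAM internal standard; SAM quantified by LC-MS/MS (MRM m/z 399.2→250.1).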

Row | Compound | IC50 (HCT116 MTAP+/+) | IC50 (HCT116 MTAP−/−) | IC50 (MAT2A homodimer) | IC50 [1]
1 | Cn1cc2cc(-n3nc4ccc(NCC(F)(F)F)nc4c(-c4ccc(C(F)F)nc4)c3=O)ccc2n1 [Example 317] | ≥ 1000 nM | < 100 nM | < 100 nM | < 100 nM
2 | Cc1ccc(-c2c(=O)n(-c3ccc4nn(C)cc4c3)nc3ccc(NCC(F)F)nc23)cn1 [Example 318] | ≥ 1000 nM | < 100 nM | < 100 nM | < 100 nM
3 | Cn1cc2cc(-n3nc4ccc(NCC(F)F)nc4c(-c4ccc(C(F)F)nc4)c3=O)ccc2n1 [Example 319] | ≥ 1000 nM | < 100 nM | < 100 nM | < 100 nM
4 | [2H]C([2H])([2H])n1cc2cc(-n3nc4ccc(NC([2H])([2H])C([2H])([2H])[2H])nc4c(-c4ccc(C(F)F)nc4)c3=O)ccc2n1 [Example 321, 4-(6-(difluoromethyl)pyridin-3-yl)-6-((ethyl-d5)amino)-2-(2-(methyl-d3)-2H-indazol-5-yl)pyrido[3,2-c]pyridazin-3(2H)-one] | ≥ 1000 nM | < 100 nM | < 100 nM | < 100 nM
5 | [2H]C([2H])([2H])C([2H])([2H])Nc1ccc2nn(-c3ccc4nn(C)cc4c3)c(=O)c(-c3ccc(C)nc3)c2n1 [Example 323] | < 100 nM | < 100 nM | < 100 nM | < 100 nM
6 | CCNc1ccc2nn(-c3ccc4nc(C)n(C)c4c3)c(=O)c(-c3ccc(C(F)F)nc3)c2n1 [Example 327] | ≥ 1000 nM | < 100 nM | < 100 nM | < 100 nM
7 | Cn1cc2cc(-n3nc4ccc(OCC(F)F)nc4c(-c4ccc5[nH]cc(C#N)c5c4)c3=O)ccc2n1 [Example 331, 5-(6-(2,2-difluoroethoxy)-2-(2-methyl-2H-indazol-5-yl)-3-oxo-2,3-dihydropyrido[3,2-c]pyridazin-4-yl)-1H-indole-3-carbonitrile] | ≥ 1000 nM | < 100 nM | < 100 nM | < 100 nM
